Experimental data taken from patent US8501911B2, “Methods of reducing inflammation and mucus hypersecretion” (Biomarck Pharmaceuticals, Ltd, priority 1999, dated 2013).
Residues, ends and D or L forms follow the SMILES beside them. *: point of attachment. Myristoyl = CCCCCCCCCCCCCC(=O)*

Columns and labels:
NHBE cells = experiment: Mucin secretion from NHBE cells exposed to kinase activators/reagents alone (ELISA); format: cell-based, human; conditions: 15 min
Protocol: To determine the potential role of PKC and/or PKG in the mucin secretory process, NHBE cells were exposed to the following two specific protein kinase activators: the phorbol ester, phorbol 12-myristate 13-acetate (PMA), for activation of PKC, and the nonhydrolyzable cGMP analogue, 8-Br-cGMP, for activation of PKG.
NHBE Cell Culture—Expansion, cryopreservation, and culture of NHBE cells in the air/liquid interface were performed as described previously. See, Krunkosky et al. Briefly, NHBE cells (Clonetics, San Diego, Calif.) were seeded in vented T75 tissue culture flasks (500 cells/cm^2) and cultured until cells reached 75-80% confluence. Cells were then dissociated by trypsin/EDTA and frozen as passage-2. Air/liquid interface culture was initiated by seeding passage-2 cells (2×10^4 cells/cm^2) in […]® clear culture inserts (Costar, Cambridge, Mass.) that were thinly coated with rat tail collagen, type 1 (Collaborative Biomedical, Bedford, Mass.). Cells were cultured submerged in medium in a humidified 95% air, 5% CO2 environment for 5-7 days until nearly confluent. At that time, the air/liquid interface was created by removing the apical medium and feeding cells basalaterally. Medium was renewed daily thereafter. Cells were cultured for an additional 14 days to allow for full differentiation.
Measurement of Mucin Secretion by ELISA—Before collection of “base line” and “test” mucin samples, the accumulated mucus at the apical surface of the cells was removed by washing with phosphate-buffered saline, pH 7.2. To collect the base-line secretion, cells were incubated with medium alone, and secreted mucin in the apical medium was collected and reserved. Cells were rested for 24 h and then exposed to medium containing the selected stimulatory and/or inhibitory reagents (or appropriate controls), after which secreted mucin was collected and reserved as the test sample. Incubation times for the base line and the test were the same but varied depending on the test reagent utilized. Both base line and test secretions were analyzed by ELISA using an antibody capture method as known in the art. See, e.g., Harlow et al., Antibodies: A Laboratory Manual, pp. 570-573, Cold Spring Harbor Laboratory, Cold Spring Harbor, N.Y. (1988). The primary antibody for this assay was 17Q2 (Babco, Richmond, Calif.), a monoclonal antibody that reacts specifically with a carbohydrate epitope on human airway mucins. […] Wright et al., Am. J. Physiol. 271, L854-L861 (1996). Levels of mucin secretion were reported as percentage of the medium control.
Mucus secreted from the airway epithelial cells in vitro after stimulation by activators was assessed using an ELISA (antibody capture method) (E. Harlow, D. Lane. “Antibodies: A Laboratory Manual.” New York: Cold Spring Harbor Laboratory Press, 1988), wherein the collected mucus is bound directly to the ELISA plate. Mucus was detected using an antibody raised against monkey airway mucus (Lin et al. Am J Respir Cell Mol Biol 1:41, 1989).

[1] = test system: MARCKS-related mucus secretion; experiment: Inhibition of MARCKS-related mucus (mucin) secretion, Table 1; format: cell-based; conditions: at 100 μM of test peptide
HL-60 clone 15 cells = experiment: Inhibition of eosinophil peroxidase (EPO) release from HL-60 clone 15 cells; format: cell-based, human; conditions: at 50 μM of test peptide; 100 nM PMA 2 hours
Text: The human promyelocytic cell line (Fischkoff S A, Graded increase in probability of eosinophilic differentiation of HL-60 promyelocytic leukemia cells induced by culture under alkaline conditions. Leuk. Res., 12:679-686, 1988; Rosenberg H F, Ackerman S J, Tenen D G. Human eosinophil cationic protein: molecular cloning of a cytotoxin and helminthotoxin with ribonuclease activity. J. Exp. Med., 170:163-176, 1989), HL-60 clone 15, is eosinophil-like promyelocytic human cell line which was purchased from American Type Culture Collection (ATCC) Rockville, Md. (catalog #CRL-1964). The cells were maintained in medium consisting of RPMI 1640 with glutamine supplemented with 10% heat inactivated fetal bovine serum (Gibco, Carlsbad, Calif.), 50 IU/mL penicillin, 50 μg/mL streptomycin, and 25 mM HEPES buffer, pH 7.8 at 37° C. in an atmosphere containing 5% CO2. Final differentiation of an eosinophil-like phenotype was initiated by culturing the cells at 5×10^5 cells/mL in the above medium containing 0.5 mM butyric acid (Sigma-Aldrich) for 5 days as previously described by Tiffany H L, Li F, and Rosenberg H F, Hyperglycosylation of eosinophil ribonuclease in a promyelocytic leukemia cell line and in differentiated peripheral blood progenitor cells J. Leukoc. Biol. 58: 49-54, 1995; and by Tiffany H L, Alkhatib G, Combadiere C, Berger E A, and Murphy P M., CC Chemokine receptors are differentially regulated by IL-5 during maturation of eosinophilic HL-60 cells. J. Immunol. 160:1385-1392, 1998. The cells were washed and resuspended at 2.5×10^6 per mL in phenol free RPMI-1640 (Cellgro; Mediatech Inc.). Aliquots of cells in 15 mL plastic tubes were preincubated with indicated concentration of test peptide (dissolved in PBS, pH 7.0) for 10 minutes followed by treatment of the cells with 100 nM PMA for 2 hours. The reaction was terminated by placing the tubes on ice and centrifugation of cells at 400 g for 5 min at 4° C. The eosinophil peroxidase (EPO) activity released by HL-60 clone 15 cells was assayed using TMB according to a previously established technique Paige et al (see above) and by Lacy P, Mahmudi-Azer S, Bablitz B, Hagen S C, Velazquez J R, Man S F, Moqbel R. Rapid mobilization of intracellularly stored RANTES in response to interferon-gamma in human eosinophils. Blood 94:23-32, 1999. Briefly, add 50 μL aliquots of the supernatant to 96-well microtiter plate followed by addition of 100 μL of the tetramethylbenzidine (TMB) substrate solution and incubate at room temperature for 15 minutes. The reaction was terminated by addition of 50 μL of 1.0 M sulfuric acid and absorbance was read at 450 nm in a spectrophotometric microplate reader (Molecular Devices, Sunnyvale, Calif.). The amount of secreted EPO was expressed as percentage of total content using the amount obtained in the same number of triton X-100-lysed cells.
Because standard EPO from HL-60 clone 15 cells was not available to use for quantification, we measured both released and intracellular (from lysed cells) levels of EPO, and expressed the released EPO as a percentage of total (intracellular and released) for each. To measure intracellular EPO in HL-60 clone 15 cells, appropriate aliquots of 0.1% triton X-100-lysed cells were taken for quantification of intracellular EPO as described above. All data are expressed as percentage of control to minimize variability between cultures.

U937 cells = experiment: Inhibition of lysozyme release from U937 cells; format: cell-based, human; conditions: at 50 μM of test peptide; 100 nM PMA
Protocol: U937 is a monocyte-like human cell line which was purchased from American Type Culture Collection (ATCC) Rockville, Md. (catalog #CRL-15932). The cells were maintained in medium consisting of RPMI 1640 with glutamine supplemented with 10% heat inactivated fetal bovine serum (Gibco, Carlsbad, Calif.), 50 IU/mL, penicillin, 50 μg/mL streptomycin at 37° C. in an atmosphere containing 5% CO2. U937 cells were washed and resuspended at 2.5×10^6 cells/mL in phenol red free RPMI-1640 medium (Cellgro, Mediatech Inc.). Aliquots of cells in 15 mL plastic tubes were preincubated with indicated concentrations of test peptides (dissolved in PBS, pH 7.0) for 10 min at 37° C. The cells were then stimulated with 100 nM PMA for 1 hour. The cells were then centrifuged at 400×g for 5 min at 4° C. Lysozyme released from U937 cells was measured using spectrophotometric assay as described previously by Ralph et al., 1976. (Ralph P, Moore M A S, and Nilsson K. Lysozyme synthesis by established human and murine histocytic lymphoma cell lines. J. Exp. Med. 143:1528-33, 1976). Briefly. 100 μL of supernatants were placed in a 96-well microtiter plate and mixed with 100 μL of a Micrococcus lysodeikticus (Sigma-Aldrich) suspension (0.3 mg/mL in 0.1 M sodium phosphate buffer, pH 7.0), incubated for […] at room temperature and decrease in absorbance at 450 nm was measured. Chicken egg white lysozyme (EMD Biosciences) was used as a standard.

[2] = Solubility in 0.5 N saline; format: physicochemical; conditions: in 0.5 N Saline at pH 6.5
human neutrophils = experiment: Human neutrophil chemotactic migration assay; format: cell-based; conditions: test peptide 50 μM; for Neutrophil Migration (% Inhibition), LTB4: LTB4 100 nM; for Neutrophil Migration (% Inhibition), LTB4 / Neutrophil Migration (% Inhibition), fMLP: 0 = inactive; for Neutrophil Migration (% Inhibition), PAF: PAF 100 nM; for Neutrophil Migration (% Inhibition), fMLP: fMLP 100 nM
Protocol: Human neutrophils were isolated from heparinized whole blood collected from healthy adult donors via cephalic venipuncture by a slightly modified method as described by Akasaki et al., 1999 (Akasaki T, Koga H, and Sumimoto H., Phosphoinositide 3-kinase-dependent and -independent activation of the small GTPase Rac2 in human neutrophils, J. Biol. Chem. 274:18055-18059, 1999). The blood was mixed with dextran (final concentration 1.4% dextran) and then allowed to settle for 60 minutes, after which time the leukocyte rich plasma was collected and layered onto 5 mL of Ficoll-Paque PLUS in 15 ml, conical tubes. The plasma was centrifuged at 1800 rpm for 20 minutes at room temperature. The residual erythrocytes were lysed utilizing a hypotonic saline and the remaining neutrophils were re-suspended in Hank's balanced salt solution containing 20 mM HEPES and 8.9 mM sodium bicarbonate without calcium or magnesium (HBSS), yielding neutrophils that were greater than 98% pure and greater than 99% viable.
Neutrophil migration assay was performed according to the method described by Frevert C W, Wong V A, Goodman R B, Goodwin R, and Martin T R., Rapid fluorescence-based measurement of neutrophil migration in vitro, J. Immunol. Methods, 213:41-52, 1998. Human neutrophils were labeled with the fluorescent dye calcein for 30 minutes at room temperature. Cells were then washed and resuspended in a migration buffer containing HBSS with 2% FCS. Cells were treated with buffer alone or with the indicated test peptide (50 μM) for 30 minutes at 37° C. Treated cells (1×10^4 cells) were then placed on the upper side of a ChemoTx® chemotaxis plate (Neuroprobe, Gaithersburg, Md.) membrane (2 μm pore size). Lower wells of the plate were filled with migration buffer alone or with buffer containing fMLP (100 nM), LTB4 (100 nM), or PAF (100 nM). Wells containing 1×10^4 labeled cells were used as standards to calculate migration percentage. Cells were allowed to migrate for 1 hour at 37° C. After incubation, cells on the top of the filter were washed away with PBS. Followed by this, 0.5 mM EDTA was added to the top of the filter for 5 min to detach adherent cells and the membrane was again washed. The plate was then centrifuged at 1000 rpm for 1 min. The filter was removed and the fluorescence was measured in the lower wells (485 nm excitation, 530 nm emission wavelength) using an fMax fluorescence plate reader (Molecular Devices, Sunnyvale, Calif.). Percent migration was determined by dividing the fluorescence of each well by the fluorescence of the standard wells containing 1×10^4 labeled cells. A lesser number of migrated neutrophils in the bottom compartment is indicative of the test peptide being an inhibitor of inflammation.

SMILES | Mucin secretion as percent of control (NHBE cells; reagent 100 nM alone) [%] | Mucin secretion as percent of control (NHBE cells; reagent 1 μM alone) [%] | Mucin secretion as percent of control (NHBE cells; reagent 1 μM together with PMA 100 nM) [%] | % Inhibition Mucin [1] [%] | % Inhibition EPO (HL-60 clone 15 cells) [%] | % Inhibition Lysozyme (U937 cells) [%] | solubility [2] [µg/mL] | Neutrophil Migration (% Inhibition), LTB4 (human neutrophils) [%] | Neutrophil Migration (% Inhibition), PAF (human neutrophils) [%] | Neutrophil Migration (% Inhibition), fMLP (human neutrophils) [%]
CCCCCCCCCCCCCC(=O)O[C@@H]1[C@@H](C)[C@@]2(O)[C@@H](C=C(CO)C[C@@]3(O)C(=O)C(C)=C[C@@H]23)[C@@H]2C(C)(C)[C@]12OC(C)=O [4-alpha-PMA] | 104 |  |  |  |  |  |  |  |  | 
Nc1nc2c(nc(Br)n2[C@@H]2O[C@@H]3COP(O)(=S)O[C@H]3[C@H]2O)c(=O)[nH]1 (some centres unmarked) [Rp-8-Br-cGMP] |  | 100 | 123 |  |  |  |  |  |  | 
CCCCCCCCCCCCCC(=O)NCC(=O)N[C@@H](C)C(=O)N[C@@H](CCC(N)=O)C(=O)N[C@@H](Cc1ccccc1)C(=O)N[C@@H](CO)C(=O)N[C@@H](CCCCN)C(=O)N[C@H](C(=O)N[C@@H](C)C(=O)N[C@@H](C)C(=O)N[C@@H](CCCCN)C(=O)NCC(=O)N[C@@H](CCC(=O)O)C(=O)N[C@@H](C)C(=O)N[C@@H](C)C(=O)N[C@@H](C)C(=O)N[C@@H](CCC(=O)O)C(=O)N[C@@H](CCCNC(=N)N)C(=O)N1CCC[C@H]1C(=O)NCC(=O)N[C@@H](CCC(=O)O)C(=O)O)[C@@H](C)O [SEQ ID NO: 5] (Myristoyl-GAQFSKTAAKGEAAAERPGE-OH; C-terminus assumed) |  |  |  | 77 | 33.6 | 99 | < 5000 | 76.8 | 88.4 | 69.1
CCCCCCCCCCCCCC(=O)NCC(=O)N[C@@H](C)C(=O)N[C@@H](CCC(N)=O)C(=O)N[C@@H](Cc1ccccc1)C(=O)N[C@@H](CO)C(=O)N[C@@H](CCCCN)C(=O)N[C@H](C(=O)N[C@@H](C)C(=O)N[C@@H](C)C(=O)N[C@@H](CCCCN)C(=O)NCC(=O)N[C@@H](CCC(=O)O)C(=O)N[C@@H](C)C(=O)N[C@@H](C)C(=O)N[C@@H](C)C(=O)N[C@@H](CCC(=O)O)C(=O)O)[C@@H](C)O [SEQ ID NO: 9, N-myristoyl-GAQFSKTAAKGEAAAE] (Myristoyl-GAQFSKTAAKGEAAAE-OH; C-terminus assumed) |  |  |  | 68 | 30.3 | 99 | > 2000 | 90.3 | 72.7 | 84.8
